Experimental data reported in patent US8748480B2, “Methods for treating opioid tolerance” (priority 2005, dated 2014).
Where two headings read alike, the source gives them in different places. No end group written: not given here.

Tests used:
[1] = target: T1, Gβγ (protein interaction site of Gβ) (Rattus norvegicus, UniProt P54311); experiment: Phage ELISA: small molecules competing with SIGK-phage binding to immobilized biotinylated Gβγ
T1 construct: made in house; host or cells: Sf9 insect cells (baculovirus), co-expressed with BirA and (His)6-Gαi1
Description: Exemplary compounds of the present invention were initially selected from a computational screen to identify ligands that bind to the novel protein interaction site of Gβ. The computational screen involved using SYBYL molecular modeling software to model the protein interaction site of Gβ as determined in the X-ray structure disclosed herein. The computational docking screen was performed with the National Cancer Institute 1900 compound library wherein the compounds were tested for docking to the protein interaction site of Gβ using FLEXX™ (Tripos, Inc., St. Louis, Mo.) for docking and CSCORE™ (Tripos, Inc.) to evaluate the energetics and fitness of the docked structure. Algorithm-dependent lists of compounds, predicted to interact with the protein interaction site of Gβ and the structural model of the interaction, were generated. Selected compounds were subsequently analyzed in the phage ELISA binding assay disclosed herein to assess whether these compounds could bind to the protein interaction site of Gβ and interfere with protein interactions at this surface.
Wild-type Gβ1 and Gβ1 mutants were made in the baculovirus vector PDW464 which encodes a biotinylation site at a lysine upstream of the amino terminus of Gβ1 (Goubaeva, et al. (2003) supra). Mutants were generated by overlap extension PCR using standard protocols. The wild-type and mutant Gβ1 constructs consisted of a 20 amino acid biotin acceptor peptide (BAP) sequence fused in-frame with the amino-terminus of rat Gβ1 subunit. When coexpressed with biotin holoenzyme synthetase (BirA) in Sf9 cells, the Gβ1 subunit becomes covalently biotinylated in vivo at the Specific lysine acceptor residue in the BAP.
Phage ELISA assays used to assess peptide binding to wild-type and mutant b-βγ were performed according to standard methods (Smrcka and Scott (2002) Methods Enzymol. 344:557-76). Briefly, 1 μg streptavidin was immobilized in the well of a […] overnight at 4° C. The wells were blocked with 100 μL of 2% bovine serum albumin (BSA) in Tris-buffered saline (TBS) for 1 hour at 4° C. followed by three washes of 1×TBS/0.5% TWEEN®. […] The wells were washed, followed by the addition of 1×10^6 to 1×10^10 phage particles and incubated at 4° C. for 3 hours. The wells were then washed six times with TBS/0.5% TWEEN® followed by addition of 40 μL of 1:5000 dilution of anti-M13 antibody (Pharmacia, Uppsala, Sweden) and incubated at room temperature for 1 hour. The wells were washed, followed by the addition of 40 μL of (2,2′-Azino-bis(3-ethylbenzthiazoline)-6-sulfonic acid (ABTS) and the colorimetric reaction was monitored at 405 nm. Non-specific binding was subtracted for each reading.
A phage ELISA assay was used to determine whether small molecules identified in the computational screen could interact with the Gβγ protein interaction surface. […] The screen was based on a reduction in the optical density (OD) of wells containing Gβγ subunits and phage. […] Three background wells contained no βγ subunits.
As disclosed herein, biotinylated Gβγ subunits were immobilized on the surface of a 96-well plate coated with streptavidin, phage displaying Gβγ-binding peptides were subsequently added and binding in the presence and absence of test compounds detected with an anti-phage antibody.

[2] = test system: differentiated HL-60 neutrophil; experiment: Cytosolic Ca2+ in agonist-activated neutrophils (fura-2); assay type: cell-based
Description: FIG. 4 is a bar graph depicting the peak cytosolic Ca^2+ concentrations for neutrophils activated with fMLP or ATP agonists in the presence or absence of 10 μM NSC119910. fMLP, n=3; ATP, n=2.
Gβγ-regulated activities of PI3Kγ and PLC-β2/-β3 are important in chemoattractant-induced responses and inflammation. PI3Kγ is involved in the production of TI-IgλL and mice deficient in PI3Kγ, lack neutrophil migration (Li, et al, (2000) Science 287:1046-9). The PLC pathway is involved in down-modulation of chemotaxis and in hyperinflammatory conditions (Li, et al. (2000) supra). Therefore, it was determined whether NSC119910 could inhibit the Gβγ/PLC interaction and block PLC activation.
Ca^2+ fluxes were measured using two 35 mL cultures of differentiated HL-60 neutrophil cultures (0.2×10^6 cells/mL). Cells were cultured for three days with in DMSO (1.2%), washed in HSS and resuspended in 2 mL HBSS at a concentration of 7×10^6 cells/mL. Addition of DMSO to the growth medium induces differentiation of these cells into morphologically and functionally mature neutrophils (Collins, et al. (1978) Proc. Natl. Acad. Sci. USA 75:2458; Collins, et al., (1979) J. Exp. Med. 149:969). Neutrophils were preloaded with fura-2 (1 μM), a fluorescent Ca^2+-sensitive indicator (Suh, et al., (1996) J. Biol. Chem. 271:32753), for 45 minutes, washed with HBSS and resuspended in 2 mL of indicator-free HBSS. An 140 μL aliquote of cells was added to a total of 2 mL HBSS. Fluorescence ratios were taken by dual excitation at 340 and 380 nm and emission at 510 nm. After a stable baseline was established, either DMSO or NSC119910 was added and incubated for 5 minutes. Subsequently, either fMLP or ATP agonists were added to activate release of Ca^2+ from intracellular stores.

[3] = test system: fMLP-dependent ERK activation; experiment: fMLP-dependent ERK activation; assay type: cell-based
[4] = target: Gβγ subunits (Rattus norvegicus, UniProt P54311); experiment: Gα subunit-Gβγ interaction (FIG. 2); assay type: binding
Description: FIG. 2 is a graph illustrating that NSC119910 binds to Gβγ and interferes with physiologically relevant protein interactions such as with the Gα subunit.
(§1) Fluorescein-labeled Gαi1 (Fαi1) was prepared in accordance with standard methods (Sarvazyan, et al. (1998) supra). Assays were used to determine peptide effects on Gα-Gβγ interactions included competition and dissociation assays (Ghosh, et al. (2003) supra). Briefly, for competition-based assays, 100 pM Fαi1 and indicated concentrations of peptides were added to 50 pM b-Gβ1γ2 immobilized on 10^5 beads per mL and incubated at room temperature for 30 minutes to reach equilibrium. The bead-associated fluorescence was then recorded in a BD Biosciences FACSCALIBUR™ flow cytometer. Data was corrected for background fluorescence and fit with a sigmoid dose response curve using Graph Pad Prism 4. To measure dissociation of Fαi1 from b-Gβ1γ2, 100 pM of Fαi1 was incubated with 50 pM immobilized b-Gβ1γ2 at room temperature for 15-20 minutes. The fluorescence of bound Fαi1 subunit was measured, followed by the addition of a 200-fold excess of unlabeled Gαi1 or peptides and the amount of Fαi1 remaining bound to the beads was measured at the indicated times.

[5] = test system: PLC β; experiment: Phospholipase C-Gβγ interaction, PLC enzymatic activity (FIG. 3); assay type: biochemical; conditions: in vitro
Description: FIG. 3 is a graph illustrating the inhibition of phospholipase C-Gβγ interactions by NSC119910. Phospholipase enzymatic activity was determined using well-established methods (Ghosh and Smrcka (2003) Meth. Mol. Biol. 237:67-75).

[6] = test system: Mice; experiment: 55° C. warm-water tail-flick test, intracerebroventricular injection; assay type: in vivo; conditions: 100 nmol NSC119910 i.c.v. with morphine
Description: Opioid receptors, μ, Δ, and κ, couple to Gi and Go proteins through α and βγ subunits, and regulate a number of signaling pathways. […] Mice were tested 20 minutes after the injection for an analgesic response in a 55° C. warm-water tail-flick test (Wells, et al. (2001) J. Pharmacol. Exp. Therapeut. 297:597-605).

[7] = test system: PLC-β2; experiment: Purified PLC-β2 activation by purified βγ (FIG. 6); assay type: biochemical; conditions: purified PLC-β2 with purified βγ
Description: (§2) FIG. 6 is a bar graph illustrating inhibition of PLC-β2 and PLC-β3 activation in the presence of exemplary compounds of the instant invention.
(§3) The ability of NSC119910 analogs to selectively modulate activation PLC-β2 and -β3 was analyzed. In this assay, PLC-β2 and PLC-β3 were purified and PLC enzymatic activity was measured in the presence or absence of purified βγ and in the presence or absence of analog.

[8] = test system: PLC-β3; experiment: Purified PLC-β3 activation by purified βγ (FIG. 6); assay type: biochemical; conditions: purified PLC-β3 with purified βγ
Description: as §2, §3

[9] = target: T2, Fαi1·b-Gβ1γ2 heterotrimer (Rattus norvegicus, UniProt P54311); experiment: Flow cytometry dissociation of Fαi1 from preformed heterotrimer with b-Gβ1γ2; assay type: binding; conditions: peptide added to preformed Fαi1·b-Gβ1γ2
T2 construct: made in house; host or cells: Sf9 insect cells (baculovirus) for b-Gβ1γ2
Description: as §1

[10] = test system: PLC β2; conditions: cited from earlier work
[11] = test system: PI3K; conditions: cited from earlier work
[12] = test system: type I adenylyl cyclase; conditions: cited from earlier work
[13] = test system: voltage-gated N-type Ca++ channel; conditions: cited from earlier work

O=C1c2ccccc2C(=O)c2c(Nc3cc4c5c(ccc6c7ccc8c9c(cc(Nc%10cccc%11c%10C(=O)c%10ccccc%10C%11=O)c(c3c56)c97)-c3ccccc3C8=O)C(=O)c3ccccc3-4)cccc21 [NSC23128]
IC50 ([1]; read-out: IC50): 16 µM

CCc1cc2c(c3ccc(C(=O)CBr)cc13)CCCC2 [NSC30820]
IC50 ([1]; read-out: IC50): 0.1 µM

Nc1c(S(=O)(=O)O)cc(Nc2cccc(S(N)(=O)=O)c2)c2c1C(=O)c1ccccc1C2=O [NSC117079]
IC50 ([1]; read-out: IC50): 43 µM

O=C(O)c1cccc2cccc(-c3c4ccc(=O)c(O)c-4oc4c(O)c(O)ccc34)c12 [NSC119893]
Ca2+ mobilization [2]: block | fMLP-dependent ERK activation [3]: without interfering

O=C(O)C1CCCCC1c1c2ccc(=O)c(O)c-2oc2c(O)c(O)ccc12 (stereo not shown) [NSC119910]
IC50 [1]: 0.1 µM | interactions of Gα subunit with Gβγ subunits [4]: blocked | PLC β-Gβγ interaction, enzymatic activity of PLC β [5]: inhibited | Ca2+ mobilization [2]: block | time taken for fluorescence to decline to half-peak values ([2]; 10 μM compound, fMLP or ATP (FIG. 5)): not substantially affected | increase in [Ca2+] ([2]; ATP-stimulated neutrophils, 10 μM compound): not significantly suppressed | increase in cytosolic Ca2+ ([2]; fMLP-stimulated neutrophils, 10 μM compound): suppressed | shift to the left in morphine dose-response curve [6]: 11 fold | fMLP-dependent ERK activation [3]: without interfering

O=C(O)/C=C/c1c2ccc(=O)c(O)c-2oc2c(O)c(O)ccc12 [NSC119911]
PLC-β2 activation [7]: block PLC-β2 activation more effectively than PLC-β3 activation | fMLP-dependent ERK activation [3]: do not interfere

Nc1ccc(-c2ccc(Nc3cc(S(=O)(=O)O)c(N)c4c3C(=O)c3ccccc3C4=O)cc2)c(S(=O)(=O)O)c1 [NSC125910]
IC50 ([1]; read-out: IC50): 68 µM

O=C(O)C1CC2C3(Cl)C(Cl)=C(Cl)C(Cl)C2(CC1c1c2ccc(=O)c(O)c-2oc2c(O)c(O)ccc12)C3(Cl)Cl (stereo not shown) [NSC158110]
fMLP-dependent ERK activation [3]: do not interfere

N[C@H]1CCc2cc(O)c(O)c(O)c2-c2ccc(O)c(=O)cc21 [NSC201400]
IC50 ([1]; read-out: IC50): 0.1 µM | PLC-β3 activation [8]: selectively potentiated | fMLP-dependent ERK activation [3]: do not interfere

Ic1ccc2c(c1)N(c1ccccc1)c1cc(Nc3ccc4nc5ccc(I)cc5[n+](-c5ccccc5)c4c3)ccc1N2 [NSC402959]
IC50 ([1]; read-out: IC50): 2 µM

C[C@H](NC(=O)[C@H](CS)NC(=O)[C@@H](N)CO)C(=O)N[C@@H](CCCNC(=N)N)C(=O)N[C@@H](Cc1ccccc1)C(=O)N[C@@H](Cc1ccccc1)C(=O)NCC(=O)N[C@H](C(=O)N1CCC[C@H]1C(=O)NCC(=O)N[C@@H](CS)C(=O)N[C@H](C(=O)O)[C@@H](C)O)[C@@H](C)O [SCAR]
dissociation of a preformed heterotrimer [9]: could not promote dissociation

CC[C@H](C)[C@H](NC(=O)[C@H](CC(N)=O)NC(=O)[C@H](CC(C)C)NC(=O)[C@H](C)NC(=O)[C@H](C)NC(=O)[C@H](CCCNC(=N)N)NC(=O)[C@@H](NC(=O)[C@@H](N)CO)[C@@H](C)CC)C(=O)N[C@@H](CC(C)C)C(=O)NCC(=O)N[C@@H](Cc1ccc(O)cc1)C(=O)N1CCC[C@H]1C(=O)N[C@@H](CC(=O)O)C(=O)N[C@@H](Cc1ccc(O)cc1)C(=O)N[C@@H](CC(=O)O)C(=O)O [SIRK(Lys4Ala)]
dissociation of a preformed heterotrimer [9]: failed to accelerate heterotrimer dissociation

CC[C@H](C)[C@H](NC(=O)[C@H](CC(N)=O)NC(=O)[C@H](CC(C)C)NC(=O)[C@H](C)NC(=O)[C@H](CCCCN)NC(=O)[C@H](CCCNC(=N)N)NC(=O)[C@@H](NC(=O)[C@@H](N)CO)[C@@H](C)CC)C(=O)N[C@@H](CC(C)C)C(=O)NCC(=O)N[C@@H](Cc1ccc(O)cc1)C(=O)N1CCC[C@H]1C(=O)N[C@@H](CC(=O)O)C(=O)N[C@@H](Cc1ccc(O)cc1)C(=O)N[C@@H](CC(=O)O)C(=O)O [SIRK]
dissociation of a preformed heterotrimer [9]: promotes dissociation | IC50 ([10]; read-out: IC50 for inhibition of PLC β2 activation by Gβ1γ2): 5 µM | activation of PI3K [11]: blocked | Gβ1γ2 regulation of type I adenylyl cyclase [12]: little or no effect | Gβ1γ2 regulation of voltage-gated N-type Ca++ channel activity [13]: little or no effect

SIRKALNILAYPDYD [SIRK(Gly10Ala)]
dissociation of a preformed heterotrimer [9]: could still accelerate heterotrimer dissociation | change of IC50 relative to wild-type SIRK peptide ([10]; inhibition of PLC β2 activation by Gβ1γ2): 12 fold
